According to patent US6599943B1, “Use of hydroxyguanidines” (WaPharm AB, priority 1996, dated 2003):
Where a name gives a salt, the structure may show the parent alone.

Key:
[1] = tested on: rat hearts (reperfusion injury); experiment: Reperfusion injury of the heart: coronary artery occlusion/reperfusion arrhythmias; assay type: in vivo
Excerpt: Capacity of a hydroxyguanidine (PR5) to afford a tissue protective effect in the heart. […] In this model the coronary arteries of rat hearts were occluded, and after some time reperfusion was allowed to occur. During reperfusion events of cardiac arrhythmias are observed. They are well known to be related to the accumulation of oxygen derived free radicals. These arrhythmias are monitored in the animals treated with PR5 and in control animals either receiving no drug or allopurinol. Allopurinol was used as a control because it is well known from the litterature as an agent capable of preventing the generation of oxygen derived free radicals. In brief, rats were anaesthetised with sodium pentobarbital and ventilated with air using a respirator for small animals at a pressure 15-20 cm H2O and a […] rate of 60 strokes/min. ECG (electrocardiogram) and systemic blood pressure was registered on a Physiograph DMP-4B (Narco Bio-Systems, Houston, USA) using, respectively, a standard lead II and a pressure transducer PR-1500 (Narco Bio-Systems, Houston, USA) contected via a catheter to the left carotid artery. The chest was opened via the fourth intercostal space, the pericardium incised and a sling (4/0 silk Medicor, Budapest, Hungary) was placed around the left coronary artery close to its origin. The silk ligature was passed through a piece of plastic tubing, the chest was partially closed and the animal was allowed to recover for 10 min. PR-5, dissolved in 0.9% NaCl, was then injected i.v. 10 min before the occlusion of the coronary artery at doses 1, 3 or 10 mg/kg body weight. As control served the same volume of 0.9% NaCl. The coronary artery was occluded for a period of 10 min by applying tension to the ligature and pressing the tube onto the heart surface. Reperfusion was initiated by removing the clamp and releasing the tension on the ligature and allowing the perfusion to continue for 20 min. Ventricular ectopic activity was assessed during the 20 min reperfusion period by measuring the duration of ventricular tachycardias and ventricular fibrillations from the ECG curves. The results are shown in Table 2, where the results are presented as mean ±SEM (in seconds) for the total duration of ventricular tachycardias and ventricular fibrillations during the 20 min reperfusion period, (or until eventual death of the animal). The incidence of animals showing ventricular tachycardia and ventricular fibrillation are also given Table 2 as the number of animals showing ventricular tachycardia and ventricular fibrillation. Figures in parenthese relate to incidents expressed in % of the total number of animals.
In Table 2 a star “*” denotes a significant difference from the control at p<0.05 using the appropriate statistical test. Alp=allopurinol. n=number of animals tested.

[2] = biological target: T1, bovine milk xanthine oxidase (Bos taurus, UniProt P80457); settings: 20 μM allopurinol, 100 μM xanthine, 0.004 units/ml xanthine oxidase
Target sequence in this assay (P80457 2-1332): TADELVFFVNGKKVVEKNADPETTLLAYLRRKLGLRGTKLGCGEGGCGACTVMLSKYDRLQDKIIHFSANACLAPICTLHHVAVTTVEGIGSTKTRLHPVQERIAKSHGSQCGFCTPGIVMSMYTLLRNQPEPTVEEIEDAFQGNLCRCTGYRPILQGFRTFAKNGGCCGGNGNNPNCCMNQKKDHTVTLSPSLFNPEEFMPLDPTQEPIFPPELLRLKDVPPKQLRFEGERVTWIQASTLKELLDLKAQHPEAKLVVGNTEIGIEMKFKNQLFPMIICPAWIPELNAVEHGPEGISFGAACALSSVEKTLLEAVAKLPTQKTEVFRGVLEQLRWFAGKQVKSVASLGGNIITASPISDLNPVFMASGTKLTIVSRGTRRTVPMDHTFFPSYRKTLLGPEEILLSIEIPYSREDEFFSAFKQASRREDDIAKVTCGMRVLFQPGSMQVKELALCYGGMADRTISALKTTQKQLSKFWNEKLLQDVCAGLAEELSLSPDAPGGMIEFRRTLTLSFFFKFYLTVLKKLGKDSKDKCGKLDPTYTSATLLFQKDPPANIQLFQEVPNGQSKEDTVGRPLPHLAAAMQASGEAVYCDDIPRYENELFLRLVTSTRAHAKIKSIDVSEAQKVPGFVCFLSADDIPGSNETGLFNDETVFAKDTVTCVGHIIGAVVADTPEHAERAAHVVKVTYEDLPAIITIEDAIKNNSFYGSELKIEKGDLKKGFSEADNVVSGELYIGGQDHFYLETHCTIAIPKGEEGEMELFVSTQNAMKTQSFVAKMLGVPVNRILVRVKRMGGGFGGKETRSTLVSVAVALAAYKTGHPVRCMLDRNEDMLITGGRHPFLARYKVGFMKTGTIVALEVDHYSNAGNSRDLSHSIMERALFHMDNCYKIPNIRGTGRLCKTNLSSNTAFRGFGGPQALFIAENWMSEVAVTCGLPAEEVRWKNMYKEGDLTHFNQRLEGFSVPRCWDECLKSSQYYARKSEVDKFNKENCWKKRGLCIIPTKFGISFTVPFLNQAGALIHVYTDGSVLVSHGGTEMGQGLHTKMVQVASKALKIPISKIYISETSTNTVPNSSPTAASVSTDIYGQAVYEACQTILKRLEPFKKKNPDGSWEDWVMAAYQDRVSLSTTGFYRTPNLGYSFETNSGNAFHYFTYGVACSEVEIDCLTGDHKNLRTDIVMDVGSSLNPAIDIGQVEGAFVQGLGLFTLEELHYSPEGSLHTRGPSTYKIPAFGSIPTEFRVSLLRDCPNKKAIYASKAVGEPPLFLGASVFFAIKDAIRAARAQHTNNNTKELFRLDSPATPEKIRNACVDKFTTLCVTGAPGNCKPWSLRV
Method: Capacity of allopurinol to inhibit the reduction of hydroxyguanidines by xanthine oxidase. […] In these tests varying amounts of guanoxabenz was added to assays yielding 150 μl final volumes and containing final concentrations 0.004 units/ml of bovine milk xanthine oxidase (Sigma, St. Louis, MO., USA), 100 μM xanthine, 20 μM allopurinol, 50 pM α2-adrenoceptors (in HT29 cell membranes), 33 mM Tris HCl, 1 mM EDTA, pH 7.5, and incubating for 1 hour at 25° C.

[3] = biological target: T1, bovine milk xanthine oxidase; experiment: Capacity to sustain oxidation of xanthine by xanthine oxidase in the absence of oxygen, spectrophotometric; assay type: biochemical; set-up: host or cells: bovine milk; settings: 50 μM hydroxyguanidine, 50 μM xanthine, 0.05 units/ml xanthine oxidase, anaerobic, pH 7.5, 20° C., blank subtracted
Method: Capacities of a series of hydroxyguanidine to sustain the oxidation of xanthine by xanthine oxidase in the absence of oxygen. The capacities of various hydroxyguanidines to sustain the oxidation of xanthine was assayed by using a spectrophotometric method. In this method bovine milk xanthine oxidase was injected to a Helma® sealable cuvette for anaerobic application thereby creating 1 ml of a reaction mixture that contained reagents as follows: 50 μM of a hydroxyguanidine, 50 μM xanthine, 0.05 units/ml bovine milk xanthine oxidase, 50 mM Tris and 1.5 mM EDTA; the pH of the reaction mixture being 7.5, and the temperature 20° C. Anaerobic conditions were assured by pre-gassing all solutions used for 5-10 min, with nitrogen. The rate of formation of uric acid was monitored spectrophotometrically by measuring the increase in absorbance at 295 nm (the absorption maximum for uric acid) at intervals. The relative capacities of the hydroxyguanidines to sustain oxidation of xanthine were estimated from the derivative of the initial linear phase of the curves. To obtain blank readings an equal volume of the solvent of the hydroxyguanidine (water) was added to the reaction mixture in separate experiments and the initial rate of absorbance change was substracted from the rate readings of the tested hydroxyguanidine.
Exemplary initial rates for the rate of the support of the oxidation of xanthine obtained by assaying the exemplary hydroxyguanidines listed above by the method in the present example are furthermore given in Table 2: […]
Target sequence in this assay (P80457 whole entry): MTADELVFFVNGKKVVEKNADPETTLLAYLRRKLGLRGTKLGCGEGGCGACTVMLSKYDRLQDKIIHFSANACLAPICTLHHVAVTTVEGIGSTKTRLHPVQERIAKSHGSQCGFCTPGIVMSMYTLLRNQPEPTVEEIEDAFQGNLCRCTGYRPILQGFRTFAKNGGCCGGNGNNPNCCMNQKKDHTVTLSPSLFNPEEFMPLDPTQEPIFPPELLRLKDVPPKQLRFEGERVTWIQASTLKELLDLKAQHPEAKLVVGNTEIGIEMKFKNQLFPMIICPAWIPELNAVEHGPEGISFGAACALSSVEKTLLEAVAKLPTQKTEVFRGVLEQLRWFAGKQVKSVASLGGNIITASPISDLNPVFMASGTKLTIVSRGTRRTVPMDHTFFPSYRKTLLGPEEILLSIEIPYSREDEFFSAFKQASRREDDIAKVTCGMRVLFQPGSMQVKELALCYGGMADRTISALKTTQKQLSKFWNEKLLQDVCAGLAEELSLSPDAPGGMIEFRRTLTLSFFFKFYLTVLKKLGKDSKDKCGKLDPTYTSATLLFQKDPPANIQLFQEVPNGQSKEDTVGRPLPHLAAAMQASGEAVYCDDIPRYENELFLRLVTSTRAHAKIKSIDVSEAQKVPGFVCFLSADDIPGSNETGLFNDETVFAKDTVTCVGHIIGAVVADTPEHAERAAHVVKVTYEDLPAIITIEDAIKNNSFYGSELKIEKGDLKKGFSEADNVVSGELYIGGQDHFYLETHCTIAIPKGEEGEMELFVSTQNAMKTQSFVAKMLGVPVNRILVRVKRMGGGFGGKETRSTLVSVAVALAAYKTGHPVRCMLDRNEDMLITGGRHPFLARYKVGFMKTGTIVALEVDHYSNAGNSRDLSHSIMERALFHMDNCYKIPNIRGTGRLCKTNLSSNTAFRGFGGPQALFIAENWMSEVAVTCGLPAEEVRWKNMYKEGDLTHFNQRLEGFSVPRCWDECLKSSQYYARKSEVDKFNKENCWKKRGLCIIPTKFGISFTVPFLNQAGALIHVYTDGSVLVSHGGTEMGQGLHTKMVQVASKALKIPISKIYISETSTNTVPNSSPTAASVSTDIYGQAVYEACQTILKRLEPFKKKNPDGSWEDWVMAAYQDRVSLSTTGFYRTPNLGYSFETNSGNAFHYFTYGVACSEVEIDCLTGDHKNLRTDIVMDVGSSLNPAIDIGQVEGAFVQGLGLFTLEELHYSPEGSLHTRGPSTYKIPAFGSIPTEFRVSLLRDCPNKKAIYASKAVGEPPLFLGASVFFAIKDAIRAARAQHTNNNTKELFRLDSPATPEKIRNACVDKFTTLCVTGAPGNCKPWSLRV

[4] = 10 mg/kg, mean ±SEM, 20 min reperfusion

| Compound | V = 1000 × (Δabs 295 nm) min^−1 (initial rate of the support of the oxidation of xanthine) [3] | other results |
| --- | --- | --- |
| Oc1ncnc2[nH]ncc12 [Allopurinol, 1H-pyrazolo[3,4-d]pyrimidin-4ol, reference compound] |  | Mortality Insidence (%) ([1]; 10 mg/kg): 7%; Mortality Insidence (number of animals) ([1]; 10 mg/kg): 1; Ventricular fibrilation Insidence (%) ([1]; 10 mg/kg, 20 min reperfusion): 50%; Ventricular fibrilation Insidence (number of animals) ([1]; 10 mg/kg, 20 min reperfusion): 7; Ventricular tachycardia Insidence (%) ([1]; 10 mg/kg, 20 min reperfusion): 64%; Ventricular tachycardia Insidence (number of animals) ([1]; 10 mg/kg, 20 min reperfusion): 9; Ventricular fibrilation Duration [1, 4]: 30 ± 10 s; Ventricular tachycardia Duration [1, 4]: 59 ± 12 s; effect on incidence and duration of ventricular tachycardias and fibrillations and on mortality, in words ([1]; versus control, p<0.05): reduces these indices, although to a lesser extent than 3-10 mg/kg of PR5; decrease in the apparent affinity of guanoxabenz on addition of allopurinol [2]: about 24 fold |
| N=C(NO)NN=C(c1ccccc1)c1ccccc1 [PR2, N-(Diphenylmethyleneamino)-N′-Hydroxyguanidine Bromide] | 1 1000 × (Δabs 295 nm) min^−1 |  |
| N=C(NO)NN=C1CCCCC1 [PR4, N-(Cyclohexylideneamino)-N′-Hydroxyguanidine Tosylate] | 7 1000 × (Δabs 295 nm) min^−1 |  |
| ONc1ncn[nH]1 [PR6, 3-Hydroxyimino-1,2,4-triazole tosylate] | 4 1000 × (Δabs 295 nm) min^−1 |  |
| N=C(NO)N/N=C/c1cccc(/C=N/NC(=N)NO)c1 [PR8, 1,3-Bis(N-hydroxyguanidinoiminomethyl)benzene tosylate chloride] | 29 1000 × (Δabs 295 nm) min^−1 |  |
| N=C(NO)NN=Cc1ccco1 [PR12, N-(Furyl-2-methyleneamino)-N′-hydroxyguanidine tosylate] | 11 1000 × (Δabs 295 nm) min^−1 |  |
| N=C(NO)NN=CCc1ccccc1 [PR13, N-(Phenylethylideneamino)-N′-hydroxyguanidine tosylate] | 3 1000 × (Δabs 295 nm) min^−1 |  |
| N=C(NO)N/N=C/c1cccn1-c1ccc(Cl)cc1 [PR15, N-[1-(4-Chlorophenyl)-pyrrolyl-2-methyleneamino(]-N′-hydroxyguanidine tosylate] | 7 1000 × (Δabs 295 nm) min^−1 |  |
| N=C(NO)N/N=C/c1nccs1 [PR16, N-(Thiazolyl-2-methyleneamino)-N′-hydroxyguanidine tosylate] | 13 1000 × (Δabs 295 nm) min^−1 |  |
| N=C(NO)N/N=C/c1cc[n+](O)cc1 [PR19, N-(N-Oxypyridyl-4-methyleneamino)-N′-hydroxyguanidine tosylate] | 5 1000 × (Δabs 295 nm) min^−1 |  |
| N-(3- Chloro-5-trifuluoromethylpyridyl-2-methyleneamino)-N′-hydroxyguanidine tosylate [PR14] | 14 1000 × (Δabs 295 nm) min^−1 |  |

The next lines start with results.

| V = 1000 × (Δabs 295 nm) min^−1 (initial rate of the support of the oxidation of xanthine) [3] | Compound | other results |
| --- | --- | --- |
| 63 1000 × (Δabs 295 nm) min^−1 | N=C(NO)N/N=C/c1ccc(/C=N/NC(=N)NO)cc1 [PR1, 1,4-Bis(N-Hydroxyguanidinoiminomethyl)Benzene Bromide] |  |
| −1 1000 × (Δabs 295 nm) min^−1 | CC(C)CC=NNC(=N)NO [PR10, N-(3-Methylbutylideneamino)-N′-hydroxyguanidine tosylate] |  |
| 12 1000 × (Δabs 295 nm) min^−1 | COc1ccc(/C(C)=N/NC(=N)NO)cc1OC [PR11, 3,4-Dimethoxyacetophenone-N-hydroxyguanyl-hydrazone tosylate] |  |
| −2 1000 × (Δabs 295 nm) min^−1 | N=C(NO)NN=CCOc1c(Cl)cccc1Cl [PR17, N-(2,6-Dichlorophenoxyethylideneamino)-N′-hydroxyguanidine bromide] |  |
| 43 1000 × (Δabs 295 nm) min^−1 | Cc1c(/C=N/NC(=N)NO)sc2ccccc12 [PR18, N-(3-Methylbenzo[b]thienyl-2-methyleneamino)-N'-hydroxyguanidine tosylate] |  |
| 13 1000 × (Δabs 295 nm) min^−1 | Cc1nn(C)c(Cl)c1/C=N/NC(=N)NO [PR20, N-(5-Chloro-1,3-dimethylpyrazolyl-4-methyleneamino)-N′-hydroxyguanidine tosylate] |  |
